Some test systems named below: ACHN; EKVX; HCT-15; HL-60; HOP-92; IGROV-1; K562; LOX IMVI; MDA-N; MOLT-4; NCI-H522; OVCAR-3; PC-3; SK-OV-3; SNB-19; TK-10; A498; MCF7; SF-539; T47D.
Common to all, as to assay: DTP human tumour cell line panel, 48 h

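Assay format: 96-well plates, 48-hour exposure. GI50: concentration for 50% inhibition of growth.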 The source made the active and inactive calls. No stated cut-off is given here; in the data, active = GI50 up to about 1.1 µM and inactive = higher.

Regarding `O=[N+]([O-])c1cccc2c(/N=N/c3ccc4ccccc4c3O)c(O)cc(S(=O)(=O)O)c12`, the GI50 (as a rule, the concentration that inhibits growth by half) in the experiment with ACHN is 22.5 µM (inactive); with EKVX, 79.3 µM (inactive); with HCT-15 it was 14.1 µM; in the experiment on HL-60, 4.21 µM (inactive); with HOP-92 it was 55.7 µM (inactive); in the experiment on IGROV-1, 7.29 µM (inactive). Also, the GI50 was > 100 µM (inactive) with K562; 6.18 µM (inactive) in the experiment on LOX IMVI; 31.1 µM (inactive) in the experiment on MDA-N; 5.21 µM (inactive) in the experiment with MOLT-4; 7.36 µM (inactive) with NCI-H522; 3.47 µM (inactive) with OVCAR-3. The GI50 in the experiment on PC-3 is 18.8 µM (inactive); in the experiment on SK-OV-3 it was 76.2 µM (inactive); in the experiment on SNB-19, > 100 µM (inactive); in the experiment with TK-10, 49.7 µM (inactive).
On to `COC1C(OC(=O)/C=C/C=C/C=C/C=C\C(=O)O)CCC2(CO2)C1C1(C)OC1CC=C(C)C` (stereo not drawn), for which the GI50 in the experiment on A498 is > 100 µM (inactive); with ACHN, > 100 µM (inactive); with EKVX, > 100 µM (inactive); with HCT-15, greater than 100 µM; with HOP-92 it was > 100 µM (inactive); in the experiment with IGROV-1, > 100 µM (inactive). Also, the GI50 with K562 was > 56.5 µM (inactive); in the experiment with LOX IMVI it was > 100 µM (inactive); in the experiment with MCF7, > 100 µM (inactive); with MOLT-4 it was > 100 µM (inactive); in the experiment with NCI-H522, > 100 µM (inactive); in the experiment on OVCAR-3 it was > 100 µM (inactive). Moreover, the GI50 in the experiment with PC-3 was > 100 µM (inactive); in the experiment on SF-539, > 100 µM (inactive); with SK-OV-3, > 89.7 µM (inactive); in the experiment with SNB-19 it was > 100 µM (inactive); in the experiment on T47D it was > 100 µM (inactive); with TK-10 it was > 100 µM (inactive).
For `CCN(CC)Cc1ccc(C(=S)Nc2ccc(C)cc2)s1`, the GI50 is 13.3 µM (inactive) in the experiment on A498; 16 µM (inactive) with ACHN; 16.2 µM (inactive) with EKVX; 16.4 µM in the experiment on HCT-15; 9.66 µM (inactive) in the experiment with HL-60; 10.9 µM (inactive) in the experiment on IGROV-1. Besides, the GI50 is 6.59 µM (inactive) in the experiment on K562; 16 µM (inactive) with LOX IMVI; 12.3 µM (inactive) in the experiment with MCF7; 13 µM (inactive) in the experiment with MOLT-4; 14.6 µM (inactive) in the experiment on NCI-H522; 21.2 µM (inactive) with OVCAR-3. In addition, the GI50 in the experiment on PC-3 is 14.3 µM (inactive); in the experiment on SF-539 it was 20.4 µM (inactive); in the experiment with SK-OV-3 it was 15.6 µM (inactive); in the experiment on SNB-19, 19 µM (inactive); in the experiment on T47D, 15.9 µM (inactive).
As to `CC(C)Cc1ccc(C(C)/C=C2\CCC(CN(C)C)C2=O)cc1` (stereo not drawn), the GI50 with A498 is 19.5 µM (inactive); in the experiment on ACHN it was 19.4 µM (inactive); with EKVX it was 19.9 µM (inactive); in the experiment with HCT-15 it was 9.18 µM; with HL-60, 5.61 µM (inactive); in the experiment on HOP-92, 19 µM (inactive). In addition, the GI50 in the experiment on IGROV-1 was 9.73 µM (inactive); with K562, 2.86 µM (inactive); in the experiment with LOX IMVI, 6.97 µM (inactive); with MCF7 it was 4.43 µM (inactive); in the experiment on MDA-N, 10.2 µM (inactive); in the experiment with MOLT-4, 2.64 µM (inactive). For the same compound, the GI50 is 7.31 µM (inactive) in the experiment on NCI-H522; 12.7 µM (inactive) in the experiment with OVCAR-3; 10.5 µM (inactive) in the experiment on PC-3; 16.5 µM (inactive) with SF-539; 19.5 µM (inactive) with SK-OV-3; 12.4 µM (inactive) in the experiment on SNB-19. In the experiment on TK-10, the GI50 is 9.23 µM (inactive).
As to `Nc1ccc(C23CC4CC(C2)CC(c2ccc(N)cc2)(C4)C3)cc1`, the GI50 is 15.7 µM (inactive) in the experiment on A498; 41.1 µM (inactive) in the experiment on ACHN; 36.6 µM (inactive) in the experiment with EKVX; 14.5 µM in the experiment with HCT-15; 31 µM (inactive) in the experiment on HL-60; 41.8 µM (inactive) with HOP-92. Also, the GI50 in the experiment with IGROV-1 is > 100 µM (inactive); in the experiment on K562, 14.6 µM (inactive); in the experiment on LOX IMVI, > 100 µM (inactive); with MCF7 it was 31.8 µM (inactive); in the experiment with MDA-N, 37.7 µM (inactive); with MOLT-4 it was 11.3 µM (inactive). For the same compound, the GI50 in the experiment with OVCAR-3 was 48.5 µM (inactive); in the experiment on SF-539, 16.4 µM (inactive); in the experiment on SNB-19 it was 37.8 µM (inactive); in the experiment on TK-10, > 100 µM (inactive).
For `Cc1ccc(/C=C2\NC(=S)N(CN3CCOCC3)C2=O)cc1`, the GI50 is > 100 µM (inactive) in the experiment on A498; > 100 µM (inactive) in the experiment on ACHN; > 100 µM (inactive) with EKVX; greater than 100 µM in the experiment on HCT-15; > 100 µM (inactive) with HOP-92; > 100 µM (inactive) with IGROV-1. Further, the GI50 is > 100 µM (inactive) in the experiment on K562; > 100 µM (inactive) in the experiment on LOX IMVI; 66.5 µM (inactive) in the experiment on MCF7; > 100 µM (inactive) in the experiment on MDA-N; > 100 µM (inactive) in the experiment with MOLT-4; > 100 µM (inactive) in the experiment on OVCAR-3. The GI50 in the experiment on PC-3, with SK-OV-3, with SNB-19 and in the experiment on TK-10 was > 100 µM (inactive) each time.
Turning to `COC(=O)/C=C(\C)CC/C=C(\C)CCC1OC1(C)C` (stereo not drawn), the GI50 in the experiment with A498 is 14.5 µM (inactive); in the experiment with ACHN, 13 µM (inactive); in the experiment on EKVX, 13 µM (inactive); in the experiment on HCT-15, 11.8 µM; with HL-60, 1.87 µM (inactive); in the experiment on HOP-92 it was 11.9 µM (inactive). Also, the GI50 in the experiment on IGROV-1 is 12.2 µM (inactive); in the experiment on K562, 3.11 µM (inactive); in the experiment on LOX IMVI, 2.53 µM (inactive); with MCF7, 11.5 µM (inactive); with MDA-N, 11.7 µM (inactive); with MOLT-4, 8.17 µM (inactive). Moreover, the GI50 with OVCAR-3 was 11.7 µM (inactive); in the experiment on PC-3 it was 8.36 µM (inactive); in the experiment with SF-539, 13.5 µM (inactive); with SK-OV-3, 23.7 µM (inactive); in the experiment with SNB-19, 44.7 µM (inactive); with TK-10 it was 12.4 µM (inactive).
As for `COC(=O)/C1=C/C=C\C[C@@]2(C)CC(c3ccoc3)OC(=O)[C@@H]2CC[C@H]1C` (stereo partly drawn), the GI50 in the experiment on A498 is > 25 µM (inactive); in the experiment on ACHN it was > 25 µM (inactive); in the experiment with EKVX, > 25 µM (inactive); in the experiment with HCT-15, greater than 25 µM; with HL-60, 7.23 µM (inactive); in the experiment with HOP-92, > 25 µM (inactive). The GI50 with IGROV-1, with K562, in the experiment with LOX IMVI, in the experiment with MCF7, with MDA-N and in the experiment with MOLT-4 was > 25 µM (inactive) in each case. For the same compound, the GI50 in the experiment on OVCAR-3, in the experiment with PC-3, in the experiment on SF-539, with SK-OV-3, in the experiment on SNB-19 and with TK-10 was > 25 µM (inactive) in each case.

For the origin of these results see ChEMBL document CHEMBL1201862, “PubChem BioAssay data set” (2004).
